# Results from article PMC6677754, “In silico design and optimization of selective membranolytic anticancer peptides” (Scientific Reports, 2019).
# Peptide text beside a SMILES is read from it.
# Experiments:
# Assay in all cases: NCI-60 screening
# Assay type in all cases: cell-based, human
# [1] = test system: ACHN; conditions: ACHN (Renal); log GI50; 48 h, sulforhodamine B, 10^-4 to 10^-8 M
# Protocol: (§1) NCI-60 screening procedure
# (§2) The NCI-60 screening procedure was performed by the Developmental Therapeutics Program of the National Cancer Institute. The procedure was performed as previously described24 in 96-well microtiter plates. Each peptide was tested in a 5-concentration assay, starting at 10^-4 M and diluting 10-fold to the lowest 10^-8 M concentration. The peptides were incubated for 48 h and the cell concentration was assayed by using the sulforhodamine B assay25 and optical density measurements. The growth inhibition (GI50) value24, measures the growth inhibitory power of the drug agent. The GI50 value is the concentration of the test drug for which the condition in Eq. S1 is met, where T is the optical density of the test well after a 48-h exposure to the peptide, T0 the optical density before applying the peptide drug and C the control optical density of a well where no peptide was applied.
# [2] = test system: SK-MEL-28; conditions: SK-MEL-28 (Melanoma); log GI50; 48 h, sulforhodamine B, 10^-4 to 10^-8 M
# Protocol: as §1, §2
# [3] = test system: SF-268; conditions: SF-268 (CNS); log GI50; 48 h, sulforhodamine B, 10^-4 to 10^-8 M
# Protocol: as §1, §2
# [4] = test system: NCI-H460; conditions: NCI-H460 (Lung); log GI50; 48 h, sulforhodamine B, 10^-4 to 10^-8 M
# Protocol: as §1, §2
# [5] = test system: OVCAR-8; conditions: OVCAR-8 (Ovarian); log GI50; 48 h, sulforhodamine B, 10^-4 to 10^-8 M
# Protocol: as §1, §2
# [6] = test system: MOLT-4; conditions: MOLT-4 (Leukemia); log GI50; 48 h, sulforhodamine B, 10^-4 to 10^-8 M
# Protocol: as §1, §2
# [7] = test system: MCF7; conditions: MCF7 (Breast); log GI50; 48 h, sulforhodamine B, 10^-4 to 10^-8 M
# Protocol: as §1, §2
# [8] = test system: CCRF-CEM; conditions: CCRF-CEM (Leukemia); log GI50; 48 h, sulforhodamine B, 10^-4 to 10^-8 M
# Protocol: as §1, §2
# [9] = test system: MDA-MB-231/ATCC; conditions: MDA-MB-231/ATCC (Breast); log GI50; 48 h, sulforhodamine B, 10^-4 to 10^-8 M
# Protocol: as §1, §2
# [10] = test system: NCI-H522; conditions: NCI-H522 (Lung); log GI50; 48 h, sulforhodamine B, 10^-4 to 10^-8 M
# Protocol: as §1, §2
# [11] = test system: RPMI-8226; conditions: RPMI-8226 (Leukemia); log GI50; 48 h, sulforhodamine B, 10^-4 to 10^-8 M
# Protocol: as §1, §2
# [12] = test system: UO-31; conditions: UO-31 (Renal); log GI50; 48 h, sulforhodamine B, 10^-4 to 10^-8 M
# Protocol: as §1, §2
# [13] = test system: DU-145; conditions: DU-145 (Prostate); log GI50; 48 h, sulforhodamine B, 10^-4 to 10^-8 M
# Protocol: as §1, §2
# [14] = test system: NCI-H226; conditions: NCI-H226 (Lung); log GI50; 48 h, sulforhodamine B, 10^-4 to 10^-8 M
# Protocol: as §1, §2
# [15] = test system: SK-MEL-5; conditions: SK-MEL-5 (Melanoma); log GI50; 48 h, sulforhodamine B, 10^-4 to 10^-8 M
# Protocol: as §1, §2
# [16] = test system: SNB-75; conditions: SNB-75 (CNS); log GI50; 48 h, sulforhodamine B, 10^-4 to 10^-8 M
# Protocol: as §1, §2
# [17] = test system: BT-549; conditions: BT-549 (Breast); log GI50; 48 h, sulforhodamine B, 10^-4 to 10^-8 M
# Protocol: as §1, §2
# [18] = test system: A549/ATCC; conditions: A549/ATCC (Lung); log GI50; 48 h, sulforhodamine B, 10^-4 to 10^-8 M
# Protocol: as §1, §2
# [19] = test system: TK-10; conditions: TK-10 (Renal); log GI50; 48 h, sulforhodamine B, 10^-4 to 10^-8 M
# Protocol: as §1, §2
# [20] = test system: 786-0; conditions: 786-0 (Renal); log GI50; 48 h, sulforhodamine B, 10^-4 to 10^-8 M
# Protocol: as §1, §2
# [21] = test system: SNB-19; conditions: SNB-19 (CNS); log GI50; 48 h, sulforhodamine B, 10^-4 to 10^-8 M
# Protocol: as §1, §2
# [22] = test system: MDA-MB-468; conditions: MDA-MB-468 (Breast); log GI50; 48 h, sulforhodamine B, 10^-4 to 10^-8 M
# Protocol: as §1, §2
# [23] = test system: HCC-2998; conditions: HCC-2998 (Colon); log GI50; 48 h, sulforhodamine B, 10^-4 to 10^-8 M
# Protocol: as §1, §2
# [24] = test system: NCI/ADR-RES; conditions: NCI/ADR-RES (Ovarian); log GI50; 48 h, sulforhodamine B, 10^-4 to 10^-8 M
# Protocol: as §1, §2
# [25] = test system: T-47D; conditions: T-47D (Breast); log GI50; 48 h, sulforhodamine B, 10^-4 to 10^-8 M
# Protocol: as §1, §2
# [26] = test system: SN12C; conditions: SN12C (Renal); log GI50; 48 h, sulforhodamine B, 10^-4 to 10^-8 M
# Protocol: as §1, §2
SMILES,Log GI (M) [1] [M],Log GI (M) [2] [M],Log GI (M) [3] [M],Log GI (M) [4] [M],Log GI (M) [5] [M],Log GI (M) [6] [M],Log GI (M) [7] [M],Log GI (M) [8] [M],Log GI (M) [9] [M],Log GI (M) [10] [M],Log GI (M) [11] [M],Log GI (M) [12] [M],Log GI (M) [13] [M],Log GI (M) [14] [M],Log GI (M) [15] [M],Log GI (M) [16] [M],Log GI (M) [17] [M],Log GI (M) [18] [M],Log GI (M) [19] [M],Log GI (M) [20] [M],also measured
CC[C@H](C)[C@H](NC(=O)[C@H](CCCNC(=N)N)NC(=O)[C@H](Cc1c[nH]c2ccccc12)NC(=O)[C@@H](NC(=O)[C@H](CCCCN)NC(=O)[C@H](CCCCN)NC(=O)[C@@H](NC(=O)[C@@H](NC(=O)[C@@H](NC(=O)[C@H](CCCCN)NC(=O)[C@H](Cc1ccccc1)NC(=O)[C@H](CCCCN)NC(=O)[C@H](CCCCN)NC(=O)[C@H](Cc1ccccc1)NC(=O)[C@@H](NC(=O)[C@@H](N)CCCCN)[C@@H](C)CC)[C@@H](C)O)[C@@H](C)CC)[C@@H](C)CC)C(C)C)C(=O)N[C@@H](Cc1ccccc1)C(=O)NCC(=O)N[C@@H](CCCNC(=N)N)C(=O)N[C@@H](Cc1ccccc1)C(N)=O [AmphiArc2] (H-KIFKKFKTIIKKVWRIFGRF-NH2),-5.71,-5.66,-5.68,-5.62,-5.48,-5.51,-5.52,-5.60,-5.72,-5.63,-5.51,-5.74,-5.77,-5.59,-5.64,-5.60,-5.45,-5.60,-5.65,-5.53,Log GI (M) [21]: -5.58 M; Log GI (M) [22]: -5.88 M; Log GI (M) [23]: -5.58 M; Log GI (M) [24]: -5.53 M; Log GI (M) [25]: -5.66 M; Log GI (M) [26]: -5.69 M
CC[C@H](C)[C@H](NC(=O)[C@H](CCCCN)NC(=O)[C@H](CCCCN)NC(=O)[C@@H](NC(=O)[C@@H](NC(=O)[C@@H](N)Cc1c[nH]cn1)[C@@H](C)CC)[C@@H](C)CC)C(=O)N[C@@H](CCCNC(=N)N)C(=O)N[C@H](C(=O)N[C@@H](Cc1c[nH]c2ccccc12)C(=O)N[C@@H](Cc1ccc(O)cc1)C(=O)N[C@@H](CCCNC(=N)N)C(=O)N[C@@H](CCCCN)C(=O)N[C@@H](C)C(=O)N[C@@H](Cc1c[nH]c2ccccc12)C(=O)N[C@@H](Cc1c[nH]cn1)C(=O)N[C@H](C(=O)N[C@@H](CC(C)C)C(=O)NCC(=O)N[C@@H](CCCCN)C(=O)N[C@H](C(N)=O)C(C)C)C(C)C)[C@@H](C)O [Off2] (H-HIIKKIRTWYRKAWHVLGKV-NH2),-4.88,-5.58,-5.46,-5.48,-5.32,-4.85,-5.69,-5.43,-5.19,-4.96,-5.06,-4.73,-5.37,-5.38,-5.40,-4.92,-4.89,-5.26,-5.49,-5.47,Log GI (M) [21]: -4.74 M; Log GI (M) [22]: -5.19 M; Log GI (M) [23]: -5.41 M; Log GI (M) [24]: -5.23 M; Log GI (M) [25]: -5.72 M; Log GI (M) [26]: -5.53 M
